Measurements published in ChEMBL document CHEMBL4393743, “Anti-tumor activity evaluation of novel tubulin and HDAC dual-targeting inhibitors” (Bioorg Med Chem Lett, 2019).
The source made the active and inactive calls. The rule behind the calls is not given here.

What was measured:
A549 [1] = experiment: Induction of apoptosis in human A549 cells assessed as live cells at 0.1 uM incubated for 72 hrs by Annexin V-FITC/propidium iodide-staining based flow cytometric analysis (reference value: 89.8%); assay type: functional
A549 [2] = experiment: Induction of cell cycle arrest in human A549 cells assessed as accumulation at G0/G1 phase at 0.3 uM incubated for 36 hrs by propidium iodide staining based flow cytometry (reference value: 72.51%); assay type: functional
NCI-H226 = experiment: Antiproliferative activity against human NCI-H226 cells assessed as cell growth inhibition incubated for 72 hrs by MTT assay; assay type: functional, cell-based; details: NCI-H226, 72 h
HeLa = experiment: Antiproliferative activity against human HeLa cells assessed as cell growth inhibition incubated for 72 hrs by MTT assay; assay type: functional, cell-based
A549 [3] = experiment: Antiproliferative activity against human A549 cells assessed as cell growth inhibition incubated for 72 hrs by MTT assay; assay type: functional, cell-based; details: A549, 72 h
SGC-7901 = experiment: Antiproliferative activity against human SGC7901 cells assessed as cell growth inhibition incubated for 72 hrs by MTT assay; assay type: functional, cell-based; details: SGC-7901, 72 h
HCT-116 = experiment: Antiproliferative activity against human HCT116 cells assessed as cell growth inhibition incubated for 72 hrs by MTT assay; assay type: functional, cell-based; details: HCT-116, 72 h
NCI-H460 = experiment: Antiproliferative activity against human NCI-H460 cells assessed as cell growth inhibition incubated for 72 hrs by MTT assay; assay type: functional, cell-based; details: NCI-H460, 72 h
MGC-803 = experiment: Antiproliferative activity against human MGC803 cells assessed as cell growth inhibition incubated for 72 hrs by MTT assay; assay type: functional, cell-based; details: MGC-803, 72 h
A549 [4] = experiment: Induction of apoptosis in human A549 cells assessed as early apoptotic cells at 0.3 uM incubated for 72 hrs by Annexin V-FITC/propidium iodide-staining based flow cytometric analysis (reference value: 1.8%); assay type: functional
A549 [5] = experiment: Induction of apoptosis in human A549 cells assessed as necrotic cells at 0.3 uM incubated for 72 hrs by Annexin V-FITC/propidium iodide-staining based flow cytometric analysis (reference value: 2.76%); assay type: functional
A549 [6] = experiment: Induction of apoptosis in human A549 cells assessed as live cells at 1 uM incubated for 72 hrs by Annexin V-FITC/propidium iodide-staining based flow cytometric analysis (reference value: 89.8%); assay type: functional
A549 [7] = experiment: Induction of apoptosis in human A549 cells assessed as late apoptotic cells at 1 uM incubated for 72 hrs by Annexin V-FITC/propidium iodide-staining based flow cytometric analysis (reference value: 5.69%); assay type: functional
A549 [8] = experiment: Induction of apoptosis in human A549 cells assessed as live cells at 10 uM incubated for 72 hrs by Annexin V-FITC/propidium iodide-staining based flow cytometric analysis (reference value: 89.8%); assay type: functional
A549 [9] = experiment: Induction of apoptosis in human A549 cells assessed as early apoptotic cells at 10 uM incubated for 72 hrs by Annexin V-FITC/propidium iodide-staining based flow cytometric analysis (reference value: 1.8%); assay type: functional
A549 [10] = experiment: Induction of apoptosis in human A549 cells assessed as necrotic cells at 10 uM incubated for 72 hrs by Annexin V-FITC/propidium iodide-staining based flow cytometric analysis (reference value: 2.76%); assay type: functional
A549 [11] = experiment: Induction of apoptosis in human A549 cells incubated for 72 hrs by Annexin V-FITC/propidium iodide-staining based flow cytometric analysis; assay type: functional, cell-based
A549 [12] = experiment: Induction of cell cycle arrest in human A549 cells assessed as accumulation at G0/G1 phase at 0.1 uM incubated for 36 hrs by propidium iodide staining based flow cytometry (reference value: 72.51%); assay type: functional
A549 [13] = experiment: Induction of cell cycle arrest in human A549 cells assessed as accumulation at S phase at 0.1 uM incubated for 36 hrs by propidium iodide staining based flow cytometry (reference value: 16.66%); assay type: functional
A549 [14] = experiment: Induction of cell cycle arrest in human A549 cells assessed as accumulation at G2/M phase at 0.1 uM incubated for 36 hrs by propidium iodide staining based flow cytometry (reference value: 10.83%); assay type: functional
A549 [15] = experiment: Induction of cell cycle arrest in human A549 cells assessed as accumulation at S phase at 0.3 uM incubated for 36 hrs by propidium iodide staining based flow cytometry (reference value: 16.66%); assay type: functional
A549 [16] = experiment: Induction of cell cycle arrest in human A549 cells assessed as accumulation at G0/G1 phase at 1 uM incubated for 36 hrs by propidium iodide staining based flow cytometry (reference value: 72.51%); assay type: functional
A549 [17] = experiment: Induction of cell cycle arrest in human A549 cells assessed as accumulation at S phase at 1 uM incubated for 36 hrs by propidium iodide staining based flow cytometry (reference value: 16.66%); assay type: functional
A549 [18] = experiment: Induction of cell cycle arrest in human A549 cells assessed as accumulation at S phase at 3 uM incubated for 36 hrs by propidium iodide staining based flow cytometry (reference value: 16.66%); assay type: functional
A549 [19] = experiment: Induction of cell cycle arrest in human A549 cells assessed as accumulation at G2/M phase at 3 uM incubated for 36 hrs by propidium iodide staining based flow cytometry (reference value: 10.83%); assay type: functional
A549 [20] = experiment: Induction of cell cycle arrest in human A549 cells assessed as accumulation at G0/G1 phase at 10 uM incubated for 36 hrs by propidium iodide staining based flow cytometry (reference value: 72.51%); assay type: functional
A549 [21] = experiment: Induction of cell cycle arrest in human A549 cells assessed as accumulation at S phase at 10 uM incubated for 36 hrs by propidium iodide staining based flow cytometry (reference value: 16.66%); assay type: functional
A549 [22] = experiment: Induction of cell cycle arrest in human A549 cells assessed as accumulation at G2/M phase at 10 uM incubated for 36 hrs by propidium iodide staining based flow cytometry (reference value: 10.83%); assay type: functional
A549 [23] = experiment: Induction of cell cycle arrest in human A549 cells assessed as accumulation at G2/M phase incubated for 36 hrs by propidium iodide staining based flow cytometry; assay type: functional
A549 [24] = experiment: Antimigratory activity in human A549 cells at 5 to 10 uM incubated for 12 hrs in presence of mitomycin by inverted microscopic-based wound healing assay; assay type: functional, cell-based
[25] = target: Histone deacetylase (Homo sapiens) (UniProt Q13547+O15379+Q9UBN7+Q92769+Q9UQL6+Q8WUI4+Q9BY41+Q96DB2+P56524+Q9UKV0+Q969S8); details: HeLa, at 1 µM
Description: Inhibition of HDAC in human HeLa cell nuclear extracts at 1 uM

- IC50 (NCI-H226): 7540 nM
- IC50 (HeLa): 890 nM
- IC50 (A549 [3]): 550 nM
- IC50 (SGC-7901): 1060 nM
- IC50 (HCT-116): 7460 nM
- IC50 (NCI-H460): 2950 nM
- IC50 (MGC-803): 3660 nM
- inhibition [25]: 19.9%
SMILES: COc1ccc(/C=C(\C)C(=O)c2cc(OC)c(OC)c(OC)c2)cc1OCCCC(=O)NO
- Activity (A549 [1]): 84.8%
- Activity (A549 [2]): 46.23%
- Activity (A549 [4]): 7.73%
- Activity (A549 [5]): 2.19%
- Activity (A549 [6]): 58.9%
- Activity (A549 [7]): 26.4%
- Activity (A549 [8]): 54.7%
- Activity (A549 [9]): 8.81%
- Activity (A549 [10]): 8%
- Activity (A549 [11]): Dose-dependent effect
- Activity (A549 [12]): 68.44%
- Activity (A549 [13]): 22.09%
- Activity (A549 [14]): 9.47%
- Activity (A549 [15]): 39.96%
- Activity (A549 [16]): 16.57%
- Activity (A549 [17]): 20.54%
- Activity (A549 [18]): 10.18%
- Activity (A549 [19]): 80.69%
- Activity (A549 [20]): 1.57%
- Activity (A549 [21]): 16.55%
- Activity (A549 [22]): 81.88%
- Activity (A549 [23]): Dose-dependent effect
- Activity (A549 [24]): Active
